Data set [1] relates to L. infantum promastigotes. The data set is described as follows: Antileishmanial activity on L. infantum promastigotes (MTT). The format is cell-based, Leishmania infantum. As to conditions: for IC50: Leishmania infantum, 72 h, read-out: IC50 (µM) L. infantum.
Another data set concerns L. tropica promastigotes. The data set is described as follows: Antileishmanial activity on L. tropica promastigotes (MTT). The format is cell-based, Leishmania tropica. To be noted: for IC50: 72 h, read-out: IC50 (µM) L. tropica.
Data set [2] relates to human microvascular endothelial cell line (HMEC-1). Put plainly: Cytotoxicity on HMEC-1 cells (MTT). In kind it is cell-based. As to conditions: for IC50: cytotoxicity, HMEC-1 cells, MTT; for SI L. tropica (IC50 HMEC-1/IC50 L. tropica): selectivity index.
[3] abbreviates: Leishmania tropica, promastigotes, MTT, starred values mean of two experiments.
Setting [4] is: promastigotes of L. tropica and/or L. infantum.
[5] abbreviates: promastigotes, MTT, starred values mean of two experiments.
Setting [6] is: fold potency versus miltefosine.
Where [7] appears, read: percent of amphotericin B potency, calculated for each experiment.

Like-named read-outs stand apart in the source and are kept apart here.

The molecule `CCCCCCCCCCCc1nc2ccccc2n1C` [Compound 2, 1-Methyl-2-undecyl-1H-benzimidazole] registered a melting point of 40.8 to 43.4 °C.

The molecule `CCCCCCCCCCCCCCCc1nc2ccccc2n1C` [Compound 7, 1-Methyl-2-pentadecyl-1H-benzimidazole] had a melting point of 64.2 to 65.6 °C. In addition, the IC50 in data set [1] (promastigotes, MTT) is above 58 µM. Also, the half-maximal inhibitory concentration (IC50) in the data set with L. tropica promastigotes (setting [3]) is above 58 µM. Moreover, in the data set on L. tropica promastigotes (setting [4]), the “Antileishmanial activity in words” value is “inactive”.

Consider `CCCCCCCCCCCCCCCc1nc2ccccc2n1C[c-]1cccc1.[Fe+2].c1cc[cH-]c1` [Compound 16, 1-(Ferrocenylmethyl)-2-pentadecyl-1 H-benzimidazole], for which the IC50 (in data set [2]; in the data set with L. tropica promastigotes (setting [5])) was above 35 µM in each case. Besides, the “Antileishmanial activity in words” value with L. tropica promastigotes (setting [4]) was “inactive”.

As for `CCCCCCCCCCCCCCCc1n(C[c-]2cccc2)c2ccccc2[n+]1C.[Fe+2].[I-].c1cc[cH-]c1` [Compound 17, 1-(Ferrocenylmethyl)-3-methyl-2-pentadecyl-1 H-benzimidazol-3-ium iodide], the IC50 in data set [2] is 1.26 ± 0.24 µM; in the data set on L. tropica promastigotes (setting [5]) it was 3.56 ± 0.84 µM. In data set [2], the “SI L. tropica (IC50 HMEC-1/IC50 L. tropica)” value is 0.35. In the data set on L. tropica promastigotes (setting [6]), the “Ratio IC50 miltef./IC50 compd., L. tropica” value came to 12.2. Moreover, the “IC50 amph. B ×100/IC50 compd., L. tropica” value in the data set on L. tropica promastigotes (setting [7]) was 3.34.

As to `CCCC(CCC)c1nc2ccccc2n1C` [Compound 19, 2-(Heptan-4-yl)-1-methyl-1 H-benzimidazole], the 50% inhibitory concentration (IC50) was above 74 µM in data set [2] (Homo sapiens) and 30 ± 10.3 µM in the data set on L. tropica promastigotes (setting [3]). Also, the “SI L. tropica (IC50 HMEC-1/IC50 L. tropica)” value in data set [2] is above 2.43. Further, the “Ratio IC50 miltef./IC50 compd., L. tropica” value in the data set with L. tropica promastigotes (setting [6]) was determined as 1.4. Moreover, the “IC50 amph. B ×100/IC50 compd., L. tropica” value with L. tropica promastigotes (setting [7]) is recorded as 0.40.

The molecule `Cn1c(Cc2ccc(Cl)cc2)[n+](C)c2ccccc21.[I-]` [Compound 21, 2-(4-Chlorobenzyl)-1,3-dimethyl-1 H-benzimidazol-3-ium iodide] displayed a melting point of 94 to 98 °C. Moreover, the IC50 in data set [1] (promastigotes, MTT) was above 50 µM. The IC50 in the data set with L. tropica promastigotes (setting [3]) is above 50 µM. Besides, the “Antileishmanial activity in words” value with L. tropica promastigotes (setting [4]) is “inactive”.

In turn, `Cn1c(Cc2ccc(Cl)cc2)[n+](C)c2cc(C(F)(F)F)ccc21.[I-]` [Compound 22, 2-(4-Chlorobenzyl)-1,3-dimethyl-5-trifluoromethyl-1 H-benzimidazol-3-ium iodide] showed a melting point of 60 °C. Besides, in data set [1] (promastigotes, MTT), the IC50 came to 16.7 ± 7.07 µM. Also, the “Ratio IC50 miltef./IC50 compd., L. infantum” value in data set [1] (setting [6]) came out at 1.9. Further, in data set [1] (setting [7]), the “IC50 amph. B ×100/IC50 compd., L. infantum” value was 0.70. For the same molecule, the IC50 in the data set on L. tropica promastigotes (setting [3]) amounted to 33.9 ± 12.6 µM. In the data set with L. tropica promastigotes (setting [6]), the “Ratio IC50 miltef./IC50 compd., L. tropica” value was 1.3. For the same molecule, in the data set with L. tropica promastigotes (setting [7]), the “IC50 amph. B ×100/IC50 compd., L. tropica” value is reported as 0.30.

Regarding `CCN(CC)CCCn1c(Cc2ccc(OC)cc2)nc2cc(C(C)=O)ccc21` [Compound 25], the half-inhibitory concentration (IC50) (in data set [1]; in the data set on L. tropica promastigotes (Leishmania tropica)) was above 51 µM each time. Besides, in the data set with L. tropica promastigotes, the “Antileishmanial activity in words” value was “inactive”.

In the case of `CC(=O)c1ccc2c(c1)nc(Cc1ccccc1)n2C[C@@H]1CCCN2CCCC[C@H]12` [Compound 29], the IC50 in data set [1] (promastigotes, MTT) came out at 28.5 ± 8.66 µM; in the data set on L. tropica promastigotes (setting [3]), 23.7 ± 8.54 µM. In data set [1] (setting [6]), the “Ratio IC50 miltef./IC50 compd., L. infantum” value is recorded as 1.1. For the same molecule, the “IC50 amph. B ×100/IC50 compd., L. infantum” value in data set [1] (setting [7]) is 0.73. The “Ratio IC50 miltef./IC50 compd., L. tropica” value with L. tropica promastigotes (setting [6]) is reported as 1.8. The “IC50 amph. B ×100/IC50 compd., L. tropica” value with L. tropica promastigotes (setting [7]) is reported as 0.75.

Regarding `COc1ccc(Cc2nc3cc(C(C)=O)ccc3n2C[C@@H]2CCCN3CCCC[C@H]23)cc1` [Compound 31], in data set [1], the “IC50 amph. B ×100/IC50 compd., L. infantum” value stood at 0.73; the “Ratio IC50 miltef./IC50 compd., L. infantum” value is given as 1.1; the half-inhibitory concentration (IC50) amounted to 28.5 ± 4.47 µM. In the data set with L. tropica promastigotes, the “IC50 amph. B ×100/IC50 compd., L. tropica” value is 0.74 and the “Ratio IC50 miltef./IC50 compd., L. tropica” value stood at 1.8. Besides, the IC50 in the data set on L. tropica promastigotes (Leishmania tropica) came out at 23.9 ± 7.78 µM.

As usually defined, the melting point is the temperature of the solid-liquid transition. In general, IC50 refers to the concentration at which inhibition is half-maximal.

The values are drawn from article PMC7011974, “Benzimidazole derivatives endowed with potent antileishmanial activity” (Journal of Enzyme Inhibition and Medicinal Chemistry, 2017).
